The test system of the experiment is L1210 leukemia ip in BDF1 mice, survival T/C. Briefly: NCI In Vivo Anticancer Drug Screen. Data for tumor model L1210 Leukemia (intraperitoneal) in B6D2F1 (BDF1) mice. To be noted: endpoint: mean survival time, higher = longer survival. In short, it runs like this: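 Each compound was tested against a transplantable tumor grown in mice. The endpoint was survival, with treated animals benchmarked against vehicle controls as a simple ratio.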

[1] abbreviates: dose: 100.0 mg/kg/injection, schedule: Q01DX001 (ip), vehicle: saline.
The mark [2] stands for this setting: dose: 100.0 mg/kg/injection, schedule: Q01DX009 (ip), vehicle: saline with Tween-80.
Where [3] appears, read: dose: 100.0 mg/kg/injection, schedule: Q04DX003 (ip), vehicle: saline with Tween-80.
Where [4] appears, read: dose: 200.0 mg/kg/injection, schedule: Q01DX009 (ip), vehicle: saline with Tween-80.
Where [5] appears, read: dose: 200.0 mg/kg/injection, schedule: Q04DX003 (ip), vehicle: saline with Tween-80.
[6] abbreviates: dose: 400.0 mg/kg/injection, schedule: Q04DX003 (ip), vehicle: saline with Tween-80.

“And” between values parts separate entries of the source, which are not always exact repeats. Equal entries are not always repeated. Toxic doses and inconclusive results are not listed.

`N=C(N)SCCCCCSC(=N)N`: the T/C is, setting by setting: under setting [1], 124 % of control; (dose: 100.0 mg/kg/injection, schedule: Q04DX002 (ip), vehicle: saline) 110 % of control; (dose: 200.0 mg/kg/injection, schedule: Q01DX001 (ip), vehicle: saline) 109 % of control; (dose: 200.0 mg/kg/injection, schedule: Q04DX002 (ip), vehicle: saline) 91 % of control.

For the compound `C1CCC2(CC1)CN2`, the T/C is, setting by setting: (dose: 25.0 mg/kg/injection, schedule: Q01DX009 (ip), vehicle: saline) 103 % of control; (dose: 50.0 mg/kg/injection, schedule: Q01DX009 (ip), vehicle: saline) 100 % of control; under setting [1], 97 % of control; (dose: 100.0 mg/kg/injection, schedule: Q01DX009 (ip), vehicle: saline) 104 % of control.

As to `O=C(c1ccccc1)C1CCCCC1`, the T/C (dose: 100.0 mg/kg/injection, schedule: Q01DX001 (ip), vehicle: other) is 111 % of control; the T/C (dose: 100.0 mg/kg/injection, schedule: Q04DX003 (ip), vehicle: saline) was 104 % of control; the T/C (dose: 200.0 mg/kg/injection, schedule: Q01DX001 (ip), vehicle: other) was 100 % of control; the T/C (dose: 200.0 mg/kg/injection, schedule: Q04DX003 (ip), vehicle: saline) is 96 % of control; the T/C (dose: 400.0 mg/kg/injection, schedule: Q01DX001 (ip), vehicle: other) is 105 % of control; the T/C (dose: 400.0 mg/kg/injection, schedule: Q04DX003 (ip), vehicle: saline) is 96 % of control.

With `COc1cc(C=Nc2ccc(-c3nc(Cc4ccccc4)sc3C)cc2)ccc1N(CCCl)CCCl`, the T/C runs as follows: (dose: 4.0 mg/kg/injection, schedule: Q01DX009 (ip), vehicle: saline) 102 % of control; (dose: 6.0 mg/kg/injection, schedule: Q01DX009 (ip), vehicle: Klucel (hydroxypropylcellulose) (HPC)) 109 % of control; (dose: 6.0 mg/kg/injection, schedule: Q01DX009 (ip), vehicle: saline) 103 % of control; (dose: 8.0 mg/kg/injection, schedule: Q01DX009 (ip), vehicle: Klucel (hydroxypropylcellulose) (HPC)) 112 % of control; (dose: 8.0 mg/kg/injection, schedule: Q01DX009 (ip), vehicle: carboxymethylcellulose (CMC)) 124 % of control; (dose: 8.0 mg/kg/injection, schedule: Q01DX009 (ip), vehicle: saline) 102 % of control. Besides, the T/C is 109 % of control (dose: 13.0 mg/kg/injection, schedule: Q01DX001 (ip), vehicle: Klucel (hydroxypropylcellulose) (HPC)); 93 % of control (dose: 13.0 mg/kg/injection, schedule: Q01DX001 (ip), vehicle: saline); 100 % of control (dose: 13.0 mg/kg/injection, schedule: Q01DX009 (ip), vehicle: saline); 113 % of control (dose: 20.0 mg/kg/injection, schedule: Q01DX001 (ip), vehicle: Klucel (hydroxypropylcellulose) (HPC)); 91 % of control (dose: 20.0 mg/kg/injection, schedule: Q01DX001 (ip), vehicle: saline); 106 % of control (dose: 20.0 mg/kg/injection, schedule: Q01DX009 (ip), vehicle: carboxymethylcellulose (CMC)). The T/C reads like this: (dose: 20.0 mg/kg/injection, schedule: Q01DX009 (ip), vehicle: saline) 105 % of control; (dose: 30.0 mg/kg/injection, schedule: Q01DX001 (ip), vehicle: Klucel (hydroxypropylcellulose) (HPC)) 124 % of control; (dose: 30.0 mg/kg/injection, schedule: Q01DX001 (ip), vehicle: saline) 102 % of control; (dose: 30.0 mg/kg/injection, schedule: Q01DX009 (ip), vehicle: Klucel (hydroxypropylcellulose) (HPC)) 153 % of control; (dose: 44.0 mg/kg/injection, schedule: Q01DX001 (ip), vehicle: carboxymethylcellulose (CMC)) 122 % of control; (dose: 45.0 mg/kg/injection, schedule: Q01DX001 (ip), vehicle: Klucel (hydroxypropylcellulose) (HPC)) 121 % of control. Besides, the T/C (dose: 45.0 mg/kg/injection, schedule: Q01DX001 (ip), vehicle: carboxymethylcellulose (CMC)) was 166 % of control; the T/C (dose: 45.0 mg/kg/injection, schedule: Q01DX001 (ip), vehicle: saline) was 110 % of control; the T/C (dose: 66.0 mg/kg/injection, schedule: Q01DX001 (ip), vehicle: saline) is 106 % of control; the T/C under setting [1] is 112 % of control and 124 % of control; the T/C (dose: 150.0 mg/kg/injection, schedule: Q01DX001 (ip), vehicle: carboxymethylcellulose (CMC)) is 108 % of control; the T/C (dose: 200.0 mg/kg/injection, schedule: Q01DX001 (ip), vehicle: carboxymethylcellulose (CMC)) was 97 % of control.

`CN(C)c1ccc(/C=N/NC(=O)c2ccncc2)c(Cl)c1`: the T/C is, setting by setting: (dose: 100.0 mg/kg/injection, schedule: Q01DX009 (ip), vehicle: Klucel (hydroxypropylcellulose) (HPC)) 96 % of control; (dose: 200.0 mg/kg/injection, schedule: Q01DX009 (ip), vehicle: Klucel (hydroxypropylcellulose) (HPC)) 89 % of control; (dose: 400.0 mg/kg/injection, schedule: Q01DX009 (ip), vehicle: Klucel (hydroxypropylcellulose) (HPC)) 91 % of control.

Regarding `Cc1ccc(Cl)cc1NC(=O)Nc1cccc2ccc(O)cc12`, the T/C is 102 % of control (dose: 50.0 mg/kg/injection, schedule: Q04DX003 (ip), vehicle: saline with Tween-80); 95 % of control (dose: 100.0 mg/kg/injection, schedule: Q01DX001 (ip), vehicle: saline with Tween-80); 95 % of control and 101 % of control under setting [2]; 102 % of control and 90 % of control (dose: 100.0 mg/kg/injection, schedule: Q04DX002 (ip), vehicle: saline with Tween-80); 96 % of control under setting [3]; 97 % of control (dose: 200.0 mg/kg/injection, schedule: Q01DX001 (ip), vehicle: saline with Tween-80). The T/C is, setting by setting: under setting [4], 88 % of control and 92 % of control; (dose: 200.0 mg/kg/injection, schedule: Q04DX002 (ip), vehicle: saline with Tween-80) 95 % of control and 91 % of control; under setting [5], 91 % of control; (dose: 400.0 mg/kg/injection, schedule: Q01DX001 (ip), vehicle: saline with Tween-80) 101 % of control; (dose: 400.0 mg/kg/injection, schedule: Q01DX009 (ip), vehicle: saline with Tween-80) 95 % of control and 103 % of control; (dose: 400.0 mg/kg/injection, schedule: Q04DX002 (ip), vehicle: saline with Tween-80) 87 % of control and 90 % of control. Besides, under setting [6], the T/C is 96 % of control.

`CCCCC1(C(C)C)C(=O)NC(=O)N(C)C1=O` (stereo not drawn): the T/C was 100 % of control (dose: 75.0 mg/kg/injection, schedule: Q01DX001 (ip), vehicle: saline) and 105 % of control (dose: 150.0 mg/kg/injection, schedule: Q01DX001 (ip), vehicle: saline).

With `Nc1ccc(N=Nc2ccccc2)c2cccnc12` (tested in a mixture with another compound), the T/C (dose: 100.0 mg/kg/injection, schedule: Q04DX003 (sc), vehicle: olive oil, sesame oil, peanut oil) was 100 % of control; the T/C (dose: 200.0 mg/kg/injection, schedule: Q04DX003 (sc), vehicle: olive oil, sesame oil, peanut oil) is 100 % of control; the T/C (dose: 400.0 mg/kg/injection, schedule: Q04DX003 (sc), vehicle: olive oil, sesame oil, peanut oil) is 117 % of control.

For the compound `CC(C)(N)C(=O)O`, the T/C (dose: 100.0 mg/kg/injection, schedule: Q04DX003 (ip), vehicle: saline sonified) is 101 % of control; the T/C (dose: 200.0 mg/kg/injection, schedule: Q04DX003 (ip), vehicle: saline sonified) is 98 % of control; the T/C (dose: 400.0 mg/kg/injection, schedule: Q04DX003 (ip), vehicle: saline sonified) was 98 % of control.

For the compound `Cc1ccc(N(Cc2ccccc2)Cc2ccccc2)cc1`, the T/C runs as follows: (dose: 75.0 mg/kg/injection, schedule: Q01DX009 (ip), vehicle: other) 103 % of control; (dose: 100.0 mg/kg/injection, schedule: Q04DX002 (ip), vehicle: other) 105 % of control; (dose: 150.0 mg/kg/injection, schedule: Q01DX009 (ip), vehicle: other) 106 % of control; (dose: 200.0 mg/kg/injection, schedule: Q04DX002 (ip), vehicle: other) 97 % of control; (dose: 300.0 mg/kg/injection, schedule: Q01DX009 (ip), vehicle: other) 98 % of control; (dose: 400.0 mg/kg/injection, schedule: Q04DX002 (ip), vehicle: other) 97 % of control.

As for `COc1ccc(C2(C(=O)O)CCCC2)cc1`, the T/C by setting is: under setting [2], 102 % of control; under setting [3], 103 % of control; under setting [4], 96 % of control; under setting [5], 108 % of control; under setting [6], 97 % of control.
